This assay deals with Ba/F3-TPOR/mutCALR type 1 engineered cells. Kind of assay: Cell proliferation with antibody and/or ruxolitinib, mutCALR Type 1. Type of assay: cell-based. The following applies: ruxolitinib alone at 50 nM; 72 hours; dotted line of FIG. 10 (Type 1 and Type 2 panels); read-out: inhibition of the level of oncogenic cell proliferation. On the procedure: To test the ability of anti-mutCALR antibodies to potentiate the therapeutic response of the JAK1/2 inhibitor ruxolitinib, Ba/F3 cells were engineered to express MPL+mutCALR Type 1 (52 bp deletion) or MPL+mutCALR Type 2 (5 bp insertion) as described above. Cells were plated at 5,000 cells per well in RPMI 1640+2% FBS, treated with 50 nM of ruxolitinib and/or anti-mutCALR antibodies. Cells were incubated for 72 hours followed by assessment of cell viability using the CellTiter-Glo Luminescent Cell Viability Assay (Promega, Madison, Wis.) and Top Count (Perkin Elmer, Boston, Mass.) or Pherastar (BMG Labtech, Ortenberg, Germany) for luminescence quantification. Ruxolitinib used at a concentration of 50 nM inhibited the level of oncogenic cell proliferation by approximately 20% (dotted line).

For `N#CC[C@H](C1CCCC1)n1cc(-c2ncnc3[nH]ccc23)cn1` [Ruxolitinib, ruxolitinib, reference compound], the inhibition at 0.05 µM was roughly 20%.

The values are drawn from patent US20230272055A1, “ANTI-MUTANT CALRETICULIN (CALR) ANTIBODIES AND USES THEREOF” (Incyte Corporation, priority 2021, published 2023).
